Assay results reported in paper PMC9428149, “Tackling recalcitrant Pseudomonas aeruginosa infections in critical illness via anti-virulence monotherapy” (Nature Communications, 2022).
≈ marks a conversion by molar mass, not a printed value. Where “and” joins values, the source holds several entries; their conditions need not be identical. Equal values may be shown once. Read-outs that look alike come from different tables or passages of the source.

What was measured:
[1] = tested on: pqsA promoter (PA14 PpqsA-GFPASV); assay: pqsA-GFP reporter expression; assay type: cell-based, Pseudomonas aeruginosa; settings: Pseudomonas aeruginosa; for activity at 50 µM: PA14, read-out: % Production pqsA-GFP; for IC50: PA14, read-out: IC50 pqsA-GFP expression, PA14, 13 concentrations
[2] = tested on: PA14 AT/P cells; assay: AT/P cells formation assay in PA14; assay type: cell-based, Pseudomonas aeruginosa; settings: for inhibition at 10 µM: Pseudomonas aeruginosa, PA14, 24 h, read-out: inhibition of AT/P cells formation
[3] = tested on: mvfR mutant constitutively expressing the pqsABCDE operon; assay type: cell-based; settings: Pseudomonas aeruginosa, control about 100, single replicates (Figure 4a)
[4] = target: T1, MvfR protein (MvfRC87) (Pseudomonas aeruginosa, UniProt Q9I4X0); assay type: binding; settings: SPR
T1 construct: The MvfRC87 protein purified as in Xiao et. al., 2006; made in house
T1 sequence (Q9I4X0 87-332): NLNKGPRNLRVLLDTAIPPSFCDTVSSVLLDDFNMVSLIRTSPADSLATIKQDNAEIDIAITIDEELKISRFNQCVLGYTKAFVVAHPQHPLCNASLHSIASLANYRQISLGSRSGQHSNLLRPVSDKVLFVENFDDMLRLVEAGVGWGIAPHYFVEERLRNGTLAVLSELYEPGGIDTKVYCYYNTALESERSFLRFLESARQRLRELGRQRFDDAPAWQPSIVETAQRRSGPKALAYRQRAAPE
Method in brief: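 MvfRC87 amine-coupled to a CM7 chip (3000–5000 RU) and binding measured by SPR. Double-reference-corrected responses 5 s before end of association plotted against concentration, for inhibitor alone and with native ligand PQS, compared with responses calculated for different binding sites.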

[5] = Solubility in iPBS pH 7.4 by HPLC; assay type: physicochemical; settings: isotonic phosphate buffer (iPBS), aqueous with cosolvent or surfactant or cyclodextrin, kinetic from dmso stock; iPBS pH 7.4, HPLC; read-out: Solubility (M) in PBS
Method in brief: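 Compounds from 10 mM DMSO stock shaken 4 h at room temperature in iPBS pH 7.4 (10 mM PBS, 2.7 mM KCl, 140 mM NaCl, 0.05% Tween), then filtered. Concentration measured by HPLC-UV against a known standard solution; solubility given as ratio of compound in test solution to standard.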

[6] = tested on: pyocyanin production in PA14; assay: Pyocyanin production assay; settings: Pseudomonas aeruginosa; for activity at 50 µM: PA14, 18 h, read-out: % Production Pyocyanin; for IC50: PA14, read-out: IC50 pyocyanin production
Experimental: The over-day culture was grown to OD600nm 1.5., diluted again at 1:10,000 in 5 mL LB and incubated with 10 μM of the test compound or the vehicle control for 18 hours at 37 °C and 200 rpm in an incubator shaker. After 18 h, 1 mL of culture was centrifuged for 2 min at 20.000 x g. The supernatant was transferred to a new tube, 200 μL of this were loaded in a flat-bottom 96-well plate, and the pyocyanin levels were quantified by measuring at OD690nm in the infinite F200 plate reader using the Magellan software (Tecan, Switzerland). […] The percent of pyocyanin was calculated compared to the PA14 culture grown in the absence of compounds.
To determine the IC50 of pyocyanin production, we followed the same process as above. […] Using GraphPad Prism Software, the IC50 curve was plotted against percent inhibition of pyocyanin production at each concentration using PA14 in the absence of compounds as a control.

[7] = tested on: 16 MDR P. aeruginosa clinical isolates; assay: Pyocyanin production in MDR clinical isolates; settings: Pseudomonas aeruginosa, 18 h, Control about 100, replicates
[8] = tested on: ΔmvfR biofilm; assay: Biofilm formation of ΔmvfR mutant (off-target); settings: Pseudomonas aeruginosa, PA14, 24 h, read-out: Biofilm formation, ΔmvfR + compound; PA14 about 100; single replicates (Figure 4c)
[9] = tested on: PA14 isogenic mutant ΔmvfR AT/P cells; assay: AT/P cell formation in ΔmvfR mutant (off-target); settings: Pseudomonas aeruginosa, PA14, 24 h, read-out: AT/P cell formation, ΔmvfR + compound; PA14 about 100; single replicates (Figure 4b)
[10] = tested on: MvfR-regulated small molecules in PA14; assay: Production of HAQs, 2-AA, DHQ and AA in PA14 cultures (LC-MS); settings: Pseudomonas aeruginosa
[11] = read-out: DHQ, ΔmvfR-pqsABCD strain
[12] = read-out: PQS, ΔmvfR-pqsABCD strain
[13] = read-out: Pyocyanin production relative to Control, clinical isolate LGR-4325
[14] = read-out: Pyocyanin production relative to Control, clinical isolate LGR-4326
[15] = read-out: Pyocyanin production relative to Control, clinical isolate LGR-4327
[16] = read-out: Pyocyanin production relative to Control, clinical isolate LGR-4328
[17] = read-out: Pyocyanin production relative to Control, clinical isolate LGR-4330
[18] = read-out: Pyocyanin production relative to Control, clinical isolate LGR-4331 (first section, r117)
[19] = read-out: Pyocyanin production relative to Control, clinical isolate LGR-4331 (second section, r140)
[20] = read-out: Pyocyanin production relative to Control, clinical isolate LGR-4333
[21] = read-out: Pyocyanin production relative to Control, clinical isolate LGR-4343
[22] = read-out: Pyocyanin production relative to Control, clinical isolate LGR-4344
[23] = read-out: Pyocyanin production relative to Control, clinical isolate LGR-4348
[24] = read-out: Pyocyanin production relative to Control, clinical isolate LGR-4356
[25] = read-out: Pyocyanin production relative to Control, clinical isolate LGR-4362
[26] = read-out: Pyocyanin production relative to Control, clinical isolate LGR-4363
[27] = read-out: Pyocyanin production relative to Control, clinical isolate LGR-4364 (first section, r326)
[28] = read-out: Pyocyanin production relative to Control, clinical isolate LGR-4364 (second section, r349)
[29] = PA14, read-out: % Production 2-AA
[30] = PA14, read-out: % Production AA
[31] = PA14, read-out: % Production DHQ
[32] = PA14, read-out: % Production HHQ
[33] = PA14, read-out: % Production HQNO
[34] = PA14, read-out: % Production PQS

N#Cc1ccc(NC(=O)CC(=O)Nc2ccc(Oc3ccccc3)cc2)cc1 [D57]
activity at 50 µM [1]: 4%
IC50 [1]: 430 nM
inhibition at 10 µM [2]: ≥ 76%
activity at 50 µM [3, 11]: 98.7%
activity at 50 µM ([3]; read-out: HHQ, ΔmvfR-pqsABCD strain): 92.2%
activity at 50 µM ([3]; read-out: HQNO, ΔmvfR-pqsABCD strain): 96.6%
activity at 50 µM [3, 12]: 82.3%
Response Unit (RU) ([4]; Concentration 1.00E-05 M): 33.5 RU
Response Unit (RU) ([4]; Concentration 1.00E-06 M): 18 RU
Response Unit (RU) ([4]; Concentration 1.00E-07 M): 5.7 RU
Response Unit (RU) ([4]; Concentration 1.00E-08 M): 1 RU
Response Unit (RU) ([4]; Concentration 3.16E-06 M): 26.4 RU
Response Unit (RU) ([4]; Concentration 3.16E-07 M): 10.4 RU
Response Unit (RU) ([4]; Concentration 3.16E-08 M): 2.9 RU
solubility at 4 h [5]: 7e-06 M (≈ 2.6 µg/mL)
activity at 50 µM [6]: 6%
IC50 [6]: 240 nM
activity at 10 µM [7, 13]: 11%
activity at 10 µM [7, 14]: 17.7%
activity at 10 µM [7, 15]: 18.2%
activity at 10 µM [7, 16]: 23.1%
activity at 10 µM [7, 17]: 41.2%
activity at 10 µM [7, 18]: 24.2%
activity at 10 µM [7, 19]: 11.3%
activity at 10 µM [7, 20]: 13.5%
activity at 10 µM [7, 21]: 20.7%
activity at 10 µM [7, 22]: 23.5%
activity at 10 µM [7, 23]: 17.8%
activity at 10 µM [7, 24]: 11%
activity at 10 µM [7, 25]: 33.9%
activity at 10 µM [7, 26]: 20.9%
activity at 10 µM [7, 27]: 21.8%
activity at 10 µM [7, 28]: 27.4%
activity at 10 µM [8]: 23.6%
activity at 10 µM [9]: 32%
activity at 50 µM [10, 29]: 38%
activity at 50 µM [10, 30]: 298%
activity at 50 µM [10, 31]: 65%
activity at 50 µM [10, 32]: 58%
activity at 50 µM [10, 33]: 54%
activity at 50 µM [10, 34]: 36%

N#Cc1ccc(NC(=O)CC(=O)Nc2ccc(C(F)(F)F)cc2)cc1 [D69]
activity at 50 µM [1]: 2%
IC50 [1]: 1700 nM
AT/P cells formation, percentage of control (single replicates) ([2]; PA14, 10 μg mL^−1 meropenem, 10 µM compound, 24 h, control PA14 + vehicle): 16.39% and 11.56%
inhibition at 10 µM [2]: ≥ 76%
activity at 50 µM [3, 11]: 112%
activity at 50 µM [3, 12]: 90.7%
Response Unit (RU) ([4]; Concentration 1.00E-05 M): 30 RU
Response Unit (RU) ([4]; Concentration 1.00E-06 M): 22.4 RU
Response Unit (RU) ([4]; Concentration 1.00E-07 M): 8.9 RU
Response Unit (RU) ([4]; Concentration 1.00E-08 M): 1.7 RU
Response Unit (RU) ([4]; Concentration 3.16E-06 M): 27.3 RU
Response Unit (RU) ([4]; Concentration 3.16E-07 M): 15.6 RU
Response Unit (RU) ([4]; Concentration 3.16E-08 M): 4.1 RU
solubility at 4 h [5]: 2.1e-05 M (≈ 7.29 µg/mL)
activity at 50 µM [6]: 4%
IC50 [6]: 960 nM
activity at 10 µM [7, 13]: 6.19%
activity at 10 µM [7, 14]: 4.51%
activity at 10 µM [7, 15]: 7.7%
activity at 10 µM [7, 16]: 29.6%
activity at 10 µM [7, 17]: 12.9%
activity at 10 µM [7, 18]: 9.26%
activity at 10 µM [7, 19]: 4.8%
activity at 10 µM [7, 20]: 6.7%
activity at 10 µM [7, 21]: 10.8%
activity at 10 µM [7, 22]: 11.6%
activity at 10 µM [7, 23]: 7.58%
activity at 10 µM [7, 24]: 6.29%
activity at 10 µM [7, 25]: 12.3%
activity at 10 µM [7, 26]: 9.09%
activity at 10 µM [7, 27]: 10.1%
activity at 10 µM [7, 28]: 11.1%
activity at 10 µM [8]: 24.2%
activity at 10 µM [9]: 30.1%
activity at 50 µM [10, 29]: 15%
activity at 50 µM [10, 30]: 920%
activity at 50 µM [10, 31]: 13%
activity at 50 µM [10, 32]: 6%
activity at 50 µM [10, 33]: 40%
activity at 50 µM [10, 34]: 16%
inhibition at 50 µM ([10]; PA14, read-out: HHQ production inhibition): 89 to 99%
inhibition at 50 µM ([10]; PA14, read-out: HQNO production inhibition): 40 to 92%
inhibition at 50 µM ([10]; PA14, read-out: PQS production inhibition): 76 to 97%
inhibition at 50 µM ([10]; PA14, read-out: inhibition of 2-AA production): 82 to 95%
inhibition at 50 µM ([10]; PA14, read-out: inhibition of DHQ production): 82 to 96%
